Ki and IC50 data for 26 compounds are collected here from US9067871B2, “Aminotetraline derivatives, pharmaceutical compositions containing them, and their use in therapy” (ABBVIE DEUTSCHLAND GMBH & CO KG, priority 2009, dated 2015).

One experiment addresses human GlyT1c transporter (Homo sapiens (Human), UniProt P48067). The experiment can be described thus: Radioligand binding assay using recombinant CHO cell membranes expressing human GlyT1. Conditions: read-out: radioligand binding Kiapp. The source says:
2. Radioligand binding assays using recombinant CHO cell membranes expressing human GlyT1: […]

Another experiment concerns the target human GlyT1c (Homo sapiens (Human), UniProt P48067). In words: [3H]-Glycine uptake into recombinant CHO cells expressing human GlyT1. It counts as cell-based. The method, then: 1. [^3H]-Glycine uptake into recombinant CHO cells expressing human GlyT1: Human GlyT1c expressing recombinant hGlyT1c—5_CHO cells were plated at 20,000 cells per well in 96 well Cytostar-T scintillation microplates (Amersham Biosciences) and cultured to sub-confluency for 24 h. […] 80 μl HBSS buffer were added, followed by 10 μl inhibitor or vehicle (10% DMSO) and 10 μl [^3H]-glycine (TRK71, Amersham Biosciences) to a final concentration of 200 nM for initiation of glycine uptake. The plates were placed in a Wallac Microbeta (PerkinElmer) and continuously counted by solid phase scintillation spectrometry during up to 3 hours. Nonspecific uptake was determined in the presence of 10 μM Org24598.

[1] abbreviates: human GlyT1c-expressing CHO cell membranes.
[2] abbreviates: hGlyT1c_5_CHO cells, 200 nM [3H]-glycine.

Structures can show the parent of a compound that is named as a salt. Where two headings read alike, the source gives them in different places.

Chain of human GlyT1c (P48067 whole entry): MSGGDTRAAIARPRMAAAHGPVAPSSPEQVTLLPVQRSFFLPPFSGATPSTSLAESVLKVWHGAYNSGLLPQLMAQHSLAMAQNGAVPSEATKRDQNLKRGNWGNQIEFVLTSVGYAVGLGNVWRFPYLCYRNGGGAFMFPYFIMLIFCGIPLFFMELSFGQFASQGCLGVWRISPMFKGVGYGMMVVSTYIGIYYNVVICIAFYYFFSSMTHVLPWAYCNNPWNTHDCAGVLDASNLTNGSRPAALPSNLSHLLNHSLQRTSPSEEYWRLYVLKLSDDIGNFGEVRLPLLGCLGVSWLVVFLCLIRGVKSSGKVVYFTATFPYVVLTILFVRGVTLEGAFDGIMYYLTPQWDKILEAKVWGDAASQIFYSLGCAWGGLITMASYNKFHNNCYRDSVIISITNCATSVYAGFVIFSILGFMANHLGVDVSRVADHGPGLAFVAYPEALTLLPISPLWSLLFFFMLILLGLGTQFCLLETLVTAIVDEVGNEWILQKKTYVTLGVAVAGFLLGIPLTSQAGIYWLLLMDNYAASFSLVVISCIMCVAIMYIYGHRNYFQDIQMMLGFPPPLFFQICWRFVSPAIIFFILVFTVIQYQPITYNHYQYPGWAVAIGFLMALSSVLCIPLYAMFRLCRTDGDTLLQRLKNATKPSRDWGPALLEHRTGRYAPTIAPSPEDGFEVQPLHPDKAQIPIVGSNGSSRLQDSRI
Chain of human GlyT1c transporter (P48067 whole entry): as above

Take `N#Cc1ccc2c(c1)C(Cc1ccc(Cl)cc1)C(N)CC2` (stereo not shown) [Example 30, 7-Amino-8-(4-chlorobenzyl)-5,6,7,8-tetrahydronaphthalene-2-carbonitrile hydrochloride]: the Ki at human GlyT1c transporter (setting [1]) was at most 100 µM. Further, the IC50 at human GlyT1c (setting [2]) is at most 100 µM.
In the case of `Cn1cc(S(=O)(=O)NCCOc2ccc3c(c2)C(Cc2ccc(Cl)cc2Cl)C(N)CC3)cn1` (stereo not shown) [Example 71, 1-Methyl-1H-pyrazole-4-sulfonic acid {2-[7-amino-8-(2,4-dichloro-benzyl)-5,6,7,8-tetrahydro-naphthalen-2-yloxy]-ethyl}-amide hydrochloride], on human GlyT1c transporter (setting [1]), the Ki is at most 0.01 µM. Moreover, the half-inhibitory concentration (IC50) on human GlyT1c (setting [2]) was at most 0.1 µM.
As to `CCCS(=O)(=O)NCCOc1ccc2c(c1)C(Cc1ccc(Cl)c(Cl)c1)C(N)CC2` (stereo not shown) [Example 8, Propane-1-sulfonic acid {2-[7-amino-8-(3,4-dichloro-benzyl)-5,6,7,8-tetrahydronaphthalen-2-yloxy]-ethyl}-amide hydrochloride], the Ki at human GlyT1c transporter was at most 0.1 µM. For the same compound, the IC50 at human GlyT1c was at most 0.1 µM.
On to `CCOC(=O)NC1CCc2ccc(OCCNS(=O)(=O)c3ccccc3)cc2C1Cc1ccc(Cl)c(Cl)c1` (stereo not shown) [Example 13, [7-(2-Benzenesulfonylamino-ethoxy)-1-(3,4-dichloro-benzyl)-1,2,3,4-tetrahydronaphthalen-2-yl]-carbamic acid ethyl ester], for which, on human GlyT1c transporter (setting [1]), the Ki was at most 100 µM. For the same compound, the IC50 at human GlyT1c (setting [2]) was at most 1000 µM.
For the compound `Cn1cc(S(=O)(=O)NCCOc2ccc3c(c2)C(Cc2ccc(Cl)cc2)C(N)CC3)cn1` (stereo not shown) [Example 28, 1-Methyl-1H-pyrazole-4-sulfonic acid {2-[7-amino-8-(4-chloro-benzyl)-5,6,7,8-tetrahydronaphthalen-2-yloxy]-ethyl}-amide hydrochloride], the Ki at human GlyT1c transporter (setting [1]) is at most 0.01 µM. For the same compound, the IC50 on human GlyT1c (setting [2]) is at most 0.01 µM.
For `CCOC(=O)NC1CCc2ccc(OCCNS(=O)(=O)c3cnn(C)c3)cc2C1Cc1cccc(Cl)c1` (stereo not shown) [Example 46, {1-(3-Chloro-benzyl)-7-[2-(1-methyl-1H-pyrazole-4-sulfonylamino)-ethoxy]-1,2,3,4-tetrahydro-naphthalen-2-yl}-carbamic acid ethyl ester], the Ki at human GlyT1c transporter (setting [1]) is at most 1 µM. On human GlyT1c (setting [2]), the IC50 was at most 1 µM.
For `CCOC(=O)NC1CCc2ccc(OCCNS(=O)(=O)c3cc(C)cs3)cc2C1Cc1ccc(Cl)c(Cl)c1` (stereo not shown) [Example 21], the Ki at human GlyT1c transporter (setting [1]) is at most 100 µM. At human GlyT1c (setting [2]), the IC50 is at most 1000 µM.
In the case of `CCOC(=O)NC1CCc2ccc(OCCNS(=O)(=O)CCC(F)(F)F)cc2C1Cc1ccc(Cl)c(Cl)c1` (stereo not shown) [Example 26, {1-(3,4-Dichloro-benzyl)-7-[2-(3,3,3-trifluoro-propane-1-sulfonylamino)-ethoxy]-1,2,3,4-tetrahydro-naphthalen-2-yl}-carbamic acid ethyl ester], the Ki at human GlyT1c transporter (setting [1]) is at most 10 µM. Moreover, the IC50 at human GlyT1c (setting [2]) is at most 1000 µM.
`CCOC(=O)NC1CCc2ccc(OCCNS(=O)(=O)c3sc(C)nc3C)cc2C1Cc1cccc(Cl)c1` (stereo not shown) [Example 49, {1-(3-Chloro-benzyl)-7-[2-(2,4-dimethyl-thiazole-5-sulfonylamino)-ethoxy]-1,2,3,4-tetrahydro-naphthalen-2-yl}-carbamic acid ethyl ester]: at human GlyT1c transporter (setting [1]), the Ki was at most 100 µM. The IC50 at human GlyT1c (setting [2]) was at most 100 µM.
With `Cc1ccc(S(=O)(=O)NCCOc2ccc3c(c2)C(Cc2ccc(Cl)cc2Cl)C(N)CC3)s1` (stereo not shown) [Example 73, 5-Methyl-thiophene-2-sulfonic acid {2-[7-amino-8-(2,4-dichloro-benzyl)-5,6,7,8-tetrahydronaphthalen-2-yloxy]-ethyl}-amide hydrochloride], the Ki at human GlyT1c transporter (setting [1]) was at most 1 µM. Also, the IC50 on human GlyT1c (setting [2]) is at most 10 µM.
As to `CCOC(=O)NC1CCc2ccc(OCCNS(=O)(=O)c3cc(C)sc3C)cc2C1Cc1cccc(Cl)c1` (stereo not shown) [Example 60, {1-(3-Chloro-benzyl)-7-[2-(2,5-dimethyl-thiophene-3-sulfonylamino)-ethoxy]-1,2,3,4-tetrahydro-naphthalen-2-yl}-carbamic acid ethyl ester], the Ki at human GlyT1c transporter (setting [1]) is at most 10 µM. In addition, the IC50 at human GlyT1c (setting [2]) is at least 100 µM.
For the compound `CCOC(=O)NC1CCc2ccc(OCCNS(=O)(=O)c3cnn(C)c3)cc2C1Cc1ccc(Cl)cc1Cl` (stereo not shown) [Example 62, {1-(2,4-Dichloro-benzyl)-7-[2-(1-methyl-1H-pyrazole-4-sulfonylamino)-ethoxy]-1,2,3,4-tetrahydro-naphthalen-2-yl}-carbamic acid ethyl ester], the Ki on human GlyT1c transporter (setting [1]) is at most 10 µM. Also, on human GlyT1c (setting [2]), the IC50 is at most 1000 µM.
Taken in the same sequence, the figures for `CC(C)(C)OC(=O)NC1CCc2ccc(CN)cc2C1Cc1ccc(Cl)c(Cl)c1` (stereo not shown) [Example 38, tert-Butyl[7-(aminomethyl)-1-(3,4-dichlorobenzyl)-1,2,3,4-tetrahydronaphthalen-2-yl]carbamate] were at most 100 µM and at most 100 µM.
In the case of `CCCS(=O)(=O)N(C)CCOc1ccc2c(c1)C(Cc1ccc(Cl)cc1)C(N)CC2` (stereo not shown) [Example 77, Propane-1-sulfonic acid {2-[7-amino-8-(4-chloro-benzyl)-5,6,7,8-tetrahydro-naphthalen-2-yloxy]-ethyl}-methyl-amide hydrochloride], at human GlyT1c transporter (setting [1]), the Ki was at most 0.1 µM. Moreover, the IC50 on human GlyT1c (setting [2]) was at most 1 µM.
Turning to `NC1CCc2ccc(OCCNS(=O)(=O)c3ccc(Cl)s3)cc2C1Cc1cccc(Cl)c1` (stereo not shown) [Example 59, 5-Chloro-thiophene-2-sulfonic acid {2-[7-amino-8-(3-chloro-benzyl)-5,6,7,8-tetrahydronaphthalen-2-yloxy]-ethyl}-amide], the Ki at human GlyT1c transporter (setting [1]) is at most 1 µM. Further, the IC50 on human GlyT1c (setting [2]) was at most 10 µM.
In the same order, the values of `Cc1ncc(S(=O)(=O)NCCOc2ccc3c(c2)C(Cc2cccc(Cl)c2)C(N)CC3)[nH]1` (stereo not shown) [Example 58, 2-Methyl-3H-imidazole-4-sulfonic acid {2-[7-amino-8-(3-chloro-benzyl)-5,6,7,8-tetrahydronaphthalen-2-yloxy]-ethyl}-amide] are at most 1 µM and at most 10 µM.
For `CCOC(=O)NC1CCc2ccc(OCCNS(=O)(=O)c3cc(C)cs3)cc2C1Cc1cccc(Cl)c1` (stereo not shown) [Example 54, {1-(3-Chloro-benzyl)-7-[2-(4-methyl-thiophene-2-sulfonylamino)-ethoxy]-1,2,3,4-tetrahydro-naphthalen-2-yl}-carbamic acid ethyl ester], the Ki on human GlyT1c transporter (setting [1]) was at most 10 µM. Also, the IC50 on human GlyT1c (setting [2]) was at least 100 µM.
As for `NC1CCc2ccc(O)cc2C1Cc1ccc(Cl)c(Cl)c1` (stereo not shown) [Example 35, 7-Amino-8-(3,4-dichlorobenzyl)-5,6,7,8-tetrahydronaphthalen-2-ol trifluoroacetate (salt)], the Ki on human GlyT1c transporter (setting [1]) is at least 100 µM. Besides, the IC50 at human GlyT1c (setting [2]) is at most 100 µM.
Regarding `CCOC(=O)NC1CCc2ccc(OCCNS(=O)(=O)CCCF)cc2C1Cc1ccc(Cl)c(Cl)c1` (stereo not shown) [Example 22, {1-(3,4-Dichloro-benzyl)-7-[2-(3-fluoro-propane-1-sulfonylamino)-ethoxy]-1,2,3,4-tetrahydro-naphthalen-2-yl}-carbamic acid ethyl ester], the Ki on human GlyT1c transporter (setting [1]) is at most 10 µM. In addition, the IC50 at human GlyT1c (setting [2]) is at most 1000 µM.
As to `CCOC(=O)NC1CCc2ccc(OCCNS(=O)(=O)c3cnc(C)[nH]3)cc2C1Cc1cccc(Cl)c1` (stereo not shown) [Example 52, {1-(3-Chloro-benzyl)-7-[2-(2-methyl-3H-imidazole-4-sulfonylamino)-ethoxy]-1,2,3,4-tetrahydro-naphthalen-2-yl}-carbamic acid ethyl ester], at human GlyT1c transporter (setting [1]), the Ki is at most 10 µM. For the same compound, the IC50 on human GlyT1c (setting [2]) was at most 10 µM.
For the compound `CCCS(=O)(=O)NCCOc1ccc2c(c1)C(Cc1ccc(Cl)cc1Cl)C(N)CC2` (stereo not shown) [Example 75, Propane-1-sulfonic acid {2-[7-amino-8-(2,4-dichloro-benzyl)-5,6,7,8-tetrahydronaphthalen-2-yloxy]-ethyl}-amide hydrochloride], the Ki on human GlyT1c transporter (setting [1]) was at most 1 µM. Further, the IC50 at human GlyT1c (setting [2]) was at most 10 µM.
Taken in the same sequence, the figures for `CCCS(=O)(=O)N(C)Cc1ccc2c(c1)[C@H](Cc1ccccc1)[C@H](N)CC2` (relative stereo) [Example 45, N-{[cis-7-amino-8-benzyl-5,6,7,8-tetrahydronaphthalen-2-yl]methyl}-N-methylpropane-1-sulfonamide hydrochloride] were at most 0.1 µM and at most 0.1 µM.
Regarding `Cc1csc(S(=O)(=O)NCCOc2ccc3c(c2)C(Cc2ccc(Cl)c(Cl)c2)C(N)CC3)c1` (stereo not shown) [Example 24, 4-Methyl-thiophene-2-sulfonic acid {2-[7-amino-8-(3,4-dichloro-benzyl)-5,6,7,8-tetrahydronaphthalen-2-yloxy]-ethyl}-amide hydrochloride], the Ki on human GlyT1c transporter is at most 0.1 µM. Also, the IC50 on human GlyT1c is at most 10 µM.
In the case of `CCOC(=O)NC1CCc2ccc(OCCNS(=O)(=O)c3cn(C)cn3)cc2C1Cc1ccc(Cl)c(Cl)c1` (stereo not shown) [Example 2, Ethyl 1-(3,4-dichlorobenzyl)-7-(2-(1-methyl-1H-imidazole-4-sulfonamido)ethoxy)-1,2,3,4-tetrahydronaphthalen-2-ylcarbamate], the Ki at human GlyT1c transporter (setting [1]) was at most 0.1 µM. Moreover, the IC50 on human GlyT1c (setting [2]) is at most 1 µM.
For the compound `CCOC(=O)NC1CCc2ccc(OCCNS(C)(=O)=O)cc2C1Cc1ccc(Cl)c(Cl)c1` (stereo not shown) [Example 12, [1-(3,4-Dichloro-benzyl)-7-(2-methanesulfonylamino-ethoxy)-1,2,3,4-tetrahydronaphthalen-2-yl]-carbamic acid ethyl ester], the Ki on human GlyT1c transporter (setting [1]) is at least 10 µM. For the same compound, on human GlyT1c (setting [2]), the half-inhibitory concentration (IC50) is at most 100 µM.
In the same order, the values of `NC1CCc2ccc(OCCN3CCCS3(=O)=O)cc2C1Cc1cccc(Cl)c1` (stereo not shown) [Example 33, 1-(3-chlorobenzyl)-7-[2-(1,1-dioxidoisothiazolidin-2-yl)ethoxy]-1,2,3,4-tetrahydronaphthalen-2-amine hydrochloride] are at most 1 µM and at most 1 µM.

By IC50 is commonly meant the point on the concentration scale where inhibition reaches its midpoint.
